# Test results from patent publication US11098032B2, “Pyran dervatives as CYP11A1 (cytochrome P450 monooxygenase 11A1) inhibitors” (ORION CORPORATION, priority 2016, dated 2021).
# Target: T1, CYP11A1 (Homo sapiens, UniProt P05108)
# T1 construct: human H295R adrenocortical carcinoma cell line was used as source of enzyme; endogenous in cells; host or cells: H295R human adrenocortical carcinoma cells
# T1 sequence (P05108 40-521): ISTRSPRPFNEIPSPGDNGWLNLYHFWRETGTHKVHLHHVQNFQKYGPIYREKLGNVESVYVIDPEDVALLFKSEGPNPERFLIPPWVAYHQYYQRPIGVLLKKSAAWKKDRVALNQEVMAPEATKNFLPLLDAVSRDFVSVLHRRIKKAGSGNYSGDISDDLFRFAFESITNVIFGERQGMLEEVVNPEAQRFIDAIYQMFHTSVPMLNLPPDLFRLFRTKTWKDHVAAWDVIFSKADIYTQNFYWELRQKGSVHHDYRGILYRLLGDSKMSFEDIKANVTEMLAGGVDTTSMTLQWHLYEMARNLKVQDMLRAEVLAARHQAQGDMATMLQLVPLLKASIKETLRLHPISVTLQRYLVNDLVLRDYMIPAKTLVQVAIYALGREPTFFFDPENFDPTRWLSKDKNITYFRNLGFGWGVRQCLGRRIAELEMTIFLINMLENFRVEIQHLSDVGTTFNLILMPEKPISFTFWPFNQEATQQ
# Experiment: CYP11A1 inhibition: modified isocaproic acid release assay (IARA) in H295R cells
# Type: cell-based
# Conditions: human H295R adrenocortical carcinoma cells treated three days, 3 nM [24,25-3H]-labelled cholesterol, 1% DMSO, 10 concentrations in duplicates; read-out: IC50 of the test compounds on CYP11A1 inhibition
# How it was run: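 H295R adrenocortical cells treated three days with test compounds at 10 concentrations in duplicate plus 3 nM [24,25-3H]-cholesterol, 1% DMSO final. Released radiolabelled isocaproic acid measured by scintillation counting after dextran-coated charcoal extraction; IC50 determined.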
row,Structure (SMILES),IC50 [nM]
1,"CC(=O)N(C)S(=O)(=O)c1ccc(COc2coc(CN3Cc4ccccc4C3)cc2=O)cc1 [Compound 70, N-((4-(((6-(Isoindolin-2-ylmethyl)-4-oxo-4H-pyran-3-yl)oxy)methyl)phenyl)-sulfonyl)-N-methylacetamide]",< 150
2,"CN(C)C(=O)c1ccc(COc2coc(CN3Cc4ccc(F)cc4C3)cc2=O)cc1 [Compound 127, 4-(((6-((5-Fluoroisoindolin-2-yl)methyl)-4-oxo-4H-pyran-3-yl)oxy)methyl)-N,N-dimethylbenzamide]",150 to 300
3,"COC(=O)c1ccc(COc2coc(CN3Cc4ccccc4C3)cc2=O)cc1 [Compound 60, Methyl 4-(((6-(isoindolin-2-ylmethyl)-4-oxo-4H-pyran-3-yl)oxy)methyl)benzoate]",301 to 2000
4,"CN(C)C(=O)c1ccc(COc2coc(CN3Cc4ccccc4C3)cc2=O)cc1 [Compound 120, 4-(((6-(Isoindolin-2-ylmethyl)-4-oxo-4H-pyran-3-yl)oxy)methyl)-N,N-dimethylbenzamide]",150 to 300
5,"O=c1cc(CN2Cc3ccccc3C2)occ1OCC1CCN(S(=O)(=O)c2ccc(F)cc2)CC1 [Compound 256, 5-((1-((4-Fluorophenyl)sulfonyl)piperidin-4-yl)methoxy)-2-(isoindolin-2-yl-methyl)-4H-pyran-4-one]",150 to 300
6,"Cc1ccc(S(=O)(=O)N2CCN(C(=O)COc3coc(CN4Cc5ccccc5C4)cc3=O)CC2)cc1 [Compound 157, 2-(Isoindolin-2-ylmethyl)-5-(2-oxo-2-(4-tosylpiperazin-1-yl)ethoxy)-4H-pyran-4-one]",301 to 2000
7,"COCCS(=O)(=O)c1ccc(COc2coc(CN3Cc4ccccc4C3)cc2=O)cc1 [Compound 28, 2-(Isoindolin-2-ylmethyl)-5-((4-((2-methoxyethyl)sulfonyl)benzyl)oxy)-4H-pyran-4-one]",150 to 300
8,"O=c1cc(CN2Cc3ccccc3C2)occ1OCc1ccc(-c2ncco2)cc1 [Compound 109, 2-(Isoindolin-2-ylmethyl)-5-((4-(oxazol-2-yl)benzyl)oxy)-4H-pyran-4-one]",< 150
9,"CC(C)(C)C(=O)N1CCC(COc2coc(CN3Cc4ccccc4C3)cc2=O)CC1 [Compound 251, 2-(Isoindolin-2-ylmethyl)-5-((1-pivaloylpiperidin-4-yl)methoxy)-4H-pyran-4-one]",< 150
10,"NS(=O)(=O)c1ccc(COc2coc(CN3Cc4ccccc4C3)cc2=O)cc1 [Compound 13, 4-(((6-(Isoindolin-2-ylmethyl)-4-oxo-4H-pyran-3-yl)oxy)methyl)benzenesulfonamide]",301 to 2000
11,"CCS(=O)(=O)N1CCC(C)(COc2coc(CN3Cc4ccccc4C3)cc2=O)CC1 [Compound 192, 5-((1-(Ethylsulfonyl)-4-methylpiperidin-4-yl)methoxy)-2-(isoindolin-2-ylmethyl)-4H-pyran-4-one]",< 150
12,"O=c1cc(CN2Cc3ccccc3C2)occ1OCc1ccc(-n2cccn2)cc1 [Compound 108, 5-((4-(1H-Pyrazol-1-yl)benzyl)oxy)-2-(isoindolin-2-ylmethyl)-4H-pyran-4-one]",150 to 300
13,CC(c1cc(=O)c(OCC2CCN(S(C)(=O)=O)CC2)co1)N1Cc2ccccc2C1 (stereo not drawn) [Compound 195],< 150
14,"O=C(COc1coc(CN2Cc3ccccc3C2)cc1=O)N1CCN(S(=O)(=O)c2ccccc2)CC1 [Compound 156, 2-(Isoindolin-2-ylmethyl)-5-(2-oxo-2-(4-(phenylsulfonyl)piperazin-1-yl)ethoxy)-4H-pyran-4-one]",301 to 2000
15,"CN(C)C(=O)c1ccc(COc2coc(CN3Cc4ccc(C(F)(F)F)cc4C3)cc2=O)cc1 [Compound 139, N,N-Dimethyl-4-(((4-oxo-6-((5-(trifluoromethyl)isoindolin-2-yl)methyl)-4H-pyran-3-yl)oxy)methyl)benzamide]",< 150
16,"O=c1cc(CN2Cc3ccccc3C2)occ1OCc1ccc(S(=O)(=O)N2CCCCC2)cc1 [Compound 7, 2-(Isoindolin-2-ylmethyl)-5-((4-(piperidin-1-ylsulfonyl)benzyl)oxy)-4H-pyran-4-one]",150 to 300
17,C=C(C)c1ccc(COc2coc(CN3Cc4ccccc4C3)cc2=O)cc1 [Compound 47],< 150
18,"CNC(=O)c1ccc(COc2coc(CN3Cc4ccccc4C3)cc2=O)cc1F [Compound 79, 2-Fluoro-4-(((6-(isoindolin-2-ylmethyl)-4-oxo-4H-pyran-3-yl)oxy)methyl)-N-methylbenzamide]",301 to 2000

row,Structure (SMILES),IC50 [nM]
1,"CS(=O)(=O)c1ccc(COc2coc(CN3CCc4ccccc4C3)cc2=O)c(Cl)c1 [Compound 18, 5-((2-Chloro-4-(methylsulfonyl)benzyl)oxy)-2-((3,4-dihydroisoquinolin-2(1H)-yl)methyl)-4H-pyran-4-one]",301 to 2000
2,"COCc1cccnc1N1CCN(C(=O)COc2coc(CN3Cc4ccccc4C3)cc2=O)CC1 [Compound 159, 2-(Isoindolin-2-ylmethyl)-5-(2-(4-(3-(methoxymethyl)pyridin-2-yl)piperazin-1-yl)-2-oxoethoxy)-4H-pyran-4-one]",301 to 2000
3,"CC(=O)N=S(C)(=O)c1ccc(COc2coc(CN3Cc4ccccc4C3)cc2=O)cc1 (stereo not drawn) [Compound 94, N-{[4-({[6-(1,3-dihydro-2H-isoindol-2-ylmethyl)-4-oxo-4H-pyran-3-yl]oxy}-methyl)phenyl](methyl)oxido-λ^6-sulfanylidene}]",150 to 300
4,"C[S@@](=N)(=O)c1ccc(COc2coc(CN3Cc4ccc(C(F)(F)F)cc4C3)cc2=O)cc1 [Compound 286, 5-((4-(R-Methylsulfonimidoyl)-benzyl)oxy)-2-((5-(trifluoromethyl)isoindolin-2-yl)methyl)-4H-pyran-4-one]",< 150
5,"O=c1cc(CN2Cc3ccccc3C2)occ1OCc1ccc(-c2ccccn2)cc1 [Compound 165, 2-(Isoindolin-2-ylmethyl)-5-((4-(pyridin-2-yl)benzyl)oxy)-4H-pyran-4-one]",150 to 300
6,"CCCCCCNC(=O)c1ccc(COc2coc(CN3Cc4ccccc4C3)cc2=O)cc1 [Compound 142, N-Hexyl-4-(((6-(isoindolin-2-ylmethyl)-4-oxo-4H-pyran-3-yl)oxy)methyl)-benzamide]",150 to 300
7,"O=c1cc(CN2Cc3ccccc3C2)occ1OCC1CCC(CN2CCCS2(=O)=O)CC1 (stereo not drawn) [Compound 176, 5-((4-((1,1-Dioxidoisothiazolidin-2-yl)methyl)cyclohexyl)methoxy)-2-(isoindolin-2-ylmethyl)-4H-pyran-4-one]",< 150
8,"CS(=O)(=O)c1ccc(COc2coc(CN3Cc4cccc(Cl)c4C3)cc2=O)cc1 [Compound 281, 2-((4-Chloroisoindolin-2-yl)methyl)-5-((4-(methylsulfonyl)benzyl)oxy)-4H-pyran-4-one]",301 to 2000
9,"O=c1cc(CN2Cc3ccccc3C2)occ1OCC1CCCCC1 [Compound 65, 5-(Cyclohexylmethoxy)-2-(isoindolin-2-ylmethyl)-4H-pyran-4-one]",< 150
10,"O=c1cc(CN2Cc3ccccc3C2)occ1OCc1cccc([N+](=O)[O-])c1 [Compound 105, 2-(Isoindolin-2-ylmethyl)-5-((3-nitrobenzyl)oxy)-4H-pyran-4-one]",301 to 2000
11,"O=C(NC1CC1)N1CCC(COc2coc(CN3Cc4ccccc4C3)cc2=O)CC1 [Compound 247, N-Cyclopropyl-4-(((6-(isoindolin-2-ylmethyl)-4-oxo-4H-pyran-3-yl)oxy)-methyl)piperidine-1-carboxamide]",150 to 300
12,"O=c1cc(CN2Cc3ccc(C(F)(F)F)cc3C2)occ1OCc1ccc(C2(O)COC2)cc1 [Compound 116, 5-((4-(3-Hydroxyoxetan-3-yl)benzyl)oxy)-2-((5-(trifluoromethyl)isoindolin-2-yl)methyl)-4H-pyran-4-one]",< 150
13,"COC(=O)/C=C/c1ccc(COc2coc(CN3Cc4ccccc4C3)cc2=O)cc1 [Compound 2, Methyl (E)-3-(4-(((6-(isoindolin-2-ylmethyl)-4-oxo-4H-pyran-3-yl)oxy)-methyl)phenyl)acrylate]",< 150
14,"CS(=O)(=O)N1CCC(COc2coc(CN3Cc4ccc(OC(F)(F)F)cc4C3)cc2=O)CC1 [Compound 205, 5-((1-(Methylsulfonyl)piperidin-4-yl)methoxy)-2-((5-(trifluoromethoxy)-isoindolin-2-yl)methyl)-4H-pyran-4-one]",< 150
15,"O=c1cc(CN2Cc3ccccc3C2)occ1OCc1ccc(S(=O)(=O)N2CCCC2)cc1 [Compound 5, 2-(Isoindolin-2-ylmethyl)-5-((4-(pyrrolidin-1-ylsulfonyl)benzyl)oxy)-4H-pyran-4-one]",< 150
16,"CC1c2ccccc2CCN1Cc1cc(=O)c(OCc2ccc(C(=O)N3CCCC3)cc2)co1 (stereo not drawn) [Compound 125, 2-((1-Methyl-3,4-dihydroisoquinolin-2(1H)-yl)methyl)-5-((4-(pyrrolidine-1-carbonyl)benzyl)oxy)-4H-pyran-4-one]",301 to 2000
17,"CC(=O)c1ccc(COc2coc(CN3Cc4ccccc4C3)cc2=O)cc1 [Compound 31, 5-((4-Acetylbenzyl)oxy)-2-(isoindolin-2-ylmethyl)-4H-pyran-4-one]",150 to 300
18,"CC(C)(C)OC(=O)N1CCC[C@H](COc2coc(CN3Cc4ccccc4C3)cc2=O)C1 [Compound 201, (S)-tert-Butyl 3-(((6-(isoindolin-2-ylmethyl)-4-oxo-4H-pyran-3-yl)oxy)methyl)-piperidine-1-carboxylate]",301 to 2000
